Data taken from US7119075B2, “Use of herbal agents for potentiation of bioefficacy of anti infectives” (priority 2003, dated 2006).

Columns and labels:
Assay in all cases: Inhibitory effect of bioenhancers alone
Type in all cases: cell-based
[1] = tested on: Staphylococcus aureus ATCC 29313; conditions: Staphylococcus aureus, ATCC29313
[2] = tested on: Methicillin Resistant Staphylococcus aureus (MRSA); conditions: Staphylococcus aureus, MRSA
[3] = tested on: Staphylococcus epidermidis ATCC 12228; conditions: Staphylococcus epidermidis, ATCC12228
[4] = tested on: Staphylococcus hemolyticus ATCC 29978; conditions: Staphylococcus, ATCC29978
[5] = tested on: Bacillus cereus RRL 02; conditions: Bacillus cereus, RRL02
[6] = tested on: Escherichia coli ATCC 25922; conditions: Escherichia coli, ATCC25922
[7] = tested on: Salmonella typhi AIIMS 2; conditions: Salmonella enterica, TYPHI, read-out: inhibitory effect
[8] = tested on: Klebsiella pneumoniae ATCC 75388; conditions: Klebsiella pneumoniae, ATCC75388
[9] = tested on: Pseudomonas aeruginosa ATCC 27583; conditions: Pseudomonas aeruginosa, ATCC27583
[10] = tested on: Candida tropicalis ATCC 750; conditions: Candida tropicalis, ATCC750
[11] = tested on: Candida krusei ATCC 6258; conditions: Pichia kudriavzevii, ATCC6258
[12] = tested on: Aspergillus flavus MTCC 1973; conditions: Aspergillus flavus, MTCC1973
[13] = tested on: Aspergillus fumigatus SI-1; conditions: Aspergillus fumigatus, SI1
[14] = tested on: Mycobacterium tuberculosis H37Rv; conditions: Mycobacterium tuberculosis, H37RV, read-out: inhibitory effect
[15] = tested on: Mycobacterium tuberculosis 615; conditions: Mycobacterium tuberculosis, 615
[16] = tested on: Mycobacterium avium ATCC 49601; conditions: Mycobacterium avium, ATCC49601
[17] = tested on: Mycobacterium intracelluare ATCC 13950; conditions: Mycobacterium, ATCC13950

For `O=C(/C=C/C=C/c1ccc2c(c1)OCO2)N1CCCCC1` [piperine], the inhibition at 0.2 µg/mL ([1]; conc. 0.2 μg/ml) was 0%, the inhibition at 0.8 µg/mL ([1]; conc. 0.8 μg/ml) was 0% and the inhibition at 3.12 µg/mL ([1]; conc. 3.12 μg/ml) was 0%. It also gave an inhibition at 12.5 µg/mL ([1]; conc. 12.5 μg/ml) of 0%, an inhibition at 50 µg/mL ([1]; conc. 50 μg/ml) of 0% and an inhibition at 100 µg/mL ([1]; conc. 100 μg/ml) of 20%. For the same molecule, the inhibition at 0.2 µg/mL ([2]; conc. 0.2 μg/ml) was 0%, the inhibition at 0.8 µg/mL ([2]; conc. 0.8 μg/ml) was 0% and the inhibition at 3.12 µg/mL ([2]; conc. 3.12 μg/ml) was 0%. For the same molecule, the inhibition at 12.5 µg/mL ([2]; conc. 12.5 μg/ml) was 0%, the inhibition at 50 µg/mL ([2]; conc. 50 μg/ml) was 0% and the inhibition at 100 µg/mL ([2]; conc. 100 μg/ml) was 20%. The inhibition at 0.2 µg/mL ([3]; conc. 0.2 μg/ml) was 0%, the inhibition at 0.8 µg/mL ([3]; conc. 0.8 μg/ml) was 0% and the inhibition at 3.12 µg/mL ([3]; conc. 3.12 μg/ml) was 0%. The inhibition at 12.5 µg/mL ([3]; conc. 12.5 μg/ml) was 0%, the inhibition at 50 µg/mL ([3]; conc. 50 μg/ml) was 20% and the inhibition at 100 µg/mL ([3]; conc. 100 μg/ml) was 50%. For the same molecule, the inhibition at 0.2 µg/mL ([4]; conc. 0.2 μg/ml) was 0%, the inhibition at 0.8 µg/mL ([4]; conc. 0.8 μg/ml) was 0% and the inhibition at 3.12 µg/mL ([4]; conc. 3.12 μg/ml) was 0%. It also gave an inhibition at 12.5 µg/mL ([4]; conc. 12.5 μg/ml) of 0%, an inhibition at 50 µg/mL ([4]; conc. 50 μg/ml) of 20% and an inhibition at 100 µg/mL ([4]; conc. 100 μg/ml) of 50%. The inhibition at 0.2 µg/mL ([5]; conc. 0.2 μg/ml) was 0%, the inhibition at 0.8 µg/mL ([5]; conc. 0.8 μg/ml) was 0% and the inhibition at 3.12 µg/mL ([5]; conc. 3.12 μg/ml) was 0%. The inhibition at 12.5 µg/mL ([5]; conc. 12.5 μg/ml) was 0%, the inhibition at 50 µg/mL ([5]; conc. 50 μg/ml) was 0% and the inhibition at 100 µg/mL ([5]; conc. 100 μg/ml) was 0%. The inhibition at 0.2 µg/mL ([6]; conc. 0.2 μg/ml) was 0%, the inhibition at 0.8 µg/mL ([6]; conc. 0.8 μg/ml) was 0% and the inhibition at 3.12 µg/mL ([6]; conc. 3.12 μg/ml) was 0%. It also gave an inhibition at 12.5 µg/mL ([6]; conc. 12.5 μg/ml) of 0%, an inhibition at 50 µg/mL ([6]; conc. 50 μg/ml) of 0% and an inhibition at 100 µg/mL ([6]; conc. 100 μg/ml) of 0%. For the same molecule, the inhibition at 0.2 µg/mL [7] was 0%, the inhibition at 0.8 µg/mL [7] was 0% and the inhibition at 3.12 µg/mL [7] was 0%. For the same molecule, the inhibition at 12.5 µg/mL [7] was 0%, the inhibition at 50 µg/mL [7] was 0% and the inhibition at 100 µg/mL [7] was 0%. It also gave an inhibition at 0.2 µg/mL ([8]; conc. 0.2 μg/ml) of 0%, an inhibition at 0.8 µg/mL ([8]; conc. 0.8 μg/ml) of 0% and an inhibition at 3.12 µg/mL ([8]; conc. 3.12 μg/ml) of 0%. It also gave an inhibition at 12.5 µg/mL ([8]; conc. 12.5 μg/ml) of 0%, an inhibition at 50 µg/mL ([8]; conc. 50 μg/ml) of 0% and an inhibition at 100 µg/mL ([8]; conc. 100 μg/ml) of 0%. The inhibition at 0.2 µg/mL ([9]; conc. 0.2 μg/ml) was 0%, the inhibition at 0.8 µg/mL ([9]; conc. 0.8 μg/ml) was 0% and the inhibition at 3.12 µg/mL ([9]; conc. 3.12 μg/ml) was 0%. It also gave an inhibition at 12.5 µg/mL ([9]; conc. 12.5 μg/ml) of 0%, an inhibition at 50 µg/mL ([9]; conc. 50 μg/ml) of 0% and an inhibition at 100 µg/mL ([9]; conc. 100 μg/ml) of 0%. For the same molecule, the inhibition at 0.2 µg/mL ([10]; conc. 0.2 μg/ml) was 0%, the inhibition at 0.8 µg/mL ([10]; conc. 0.8 μg/ml) was 0% and the inhibition at 3.12 µg/mL ([10]; conc. 3.12 μg/ml) was 0%. It also gave an inhibition at 12.5 µg/mL ([10]; conc. 12.5 μg/ml) of 0%, an inhibition at 50 µg/mL ([10]; conc. 50 μg/ml) of 0% and an inhibition at 100 µg/mL ([10]; conc. 100 μg/ml) of 20%. For the same molecule, the inhibition at 0.2 µg/mL ([11]; conc. 0.2 μg/ml) was 0%, the inhibition at 0.8 µg/mL ([11]; conc. 0.8 μg/ml) was 0% and the inhibition at 3.12 µg/mL ([11]; conc. 3.12 μg/ml) was 0%. The inhibition at 12.5 µg/mL ([11]; conc. 12.5 μg/ml) was 0%, the inhibition at 50 µg/mL ([11]; conc. 50 μg/ml) was 0% and the inhibition at 100 µg/mL ([11]; conc. 100 μg/ml) was 20%. For the same molecule, the inhibition at 0.2 µg/mL ([12]; conc. 0.2 μg/ml) was 0%, the inhibition at 0.8 µg/mL ([12]; conc. 0.8 μg/ml) was 0% and the inhibition at 3.12 µg/mL ([12]; conc. 3.12 μg/ml) was 0%. The inhibition at 12.5 µg/mL ([12]; conc. 12.5 μg/ml) was 0%, the inhibition at 50 µg/mL ([12]; conc. 50 μg/ml) was 20% and the inhibition at 100 µg/mL ([12]; conc. 100 μg/ml) was 50%. The inhibition at 0.2 µg/mL ([13]; conc. 0.2 μg/ml) was 0%, the inhibition at 0.8 µg/mL ([13]; conc. 0.8 μg/ml) was 0% and the inhibition at 3.12 µg/mL ([13]; conc. 3.12 μg/ml) was 0%. For the same molecule, the inhibition at 12.5 µg/mL ([13]; conc. 12.5 μg/ml) was 0%, the inhibition at 50 µg/mL ([13]; conc. 50 μg/ml) was 20% and the inhibition at 100 µg/mL ([13]; conc. 100 μg/ml) was 50%. The inhibition at 0.2 µg/mL [14] was 0%, the inhibition at 0.8 µg/mL [14] was 0% and the inhibition at 3.12 µg/mL [14] was 0%. It also gave an inhibition at 12.5 µg/mL [14] of 0%, an inhibition at 50 µg/mL [14] of 0% and an inhibition at 100 µg/mL [14] of 0%. It also gave an inhibition at 0.2 µg/mL ([15]; conc. 0.2 μg/ml) of 0%, an inhibition at 0.8 µg/mL ([15]; conc. 0.8 μg/ml) of 0% and an inhibition at 3.12 µg/mL ([15]; conc. 3.12 μg/ml) of 0%. The inhibition at 12.5 µg/mL ([15]; conc. 12.5 μg/ml) was 0%, the inhibition at 50 µg/mL ([15]; conc. 50 μg/ml) was 0% and the inhibition at 100 µg/mL ([15]; conc. 100 μg/ml) was 0%. It also gave an inhibition at 0.2 µg/mL ([16]; conc. 0.2 μg/ml) of 0%, an inhibition at 0.8 µg/mL ([16]; conc. 0.8 μg/ml) of 0% and an inhibition at 3.12 µg/mL ([16]; conc. 3.12 μg/ml) of 0%. The inhibition at 12.5 µg/mL ([16]; conc. 12.5 μg/ml) was 0%, the inhibition at 50 µg/mL ([16]; conc. 50 μg/ml) was 0% and the inhibition at 100 µg/mL ([16]; conc. 100 μg/ml) was 0%. The inhibition at 0.2 µg/mL ([17]; conc. 0.2 μg/ml) was 0%, the inhibition at 0.8 µg/mL ([17]; conc. 0.8 μg/ml) was 0% and the inhibition at 3.12 µg/mL ([17]; conc. 3.12 μg/ml) was 0%. The inhibition at 12.5 µg/mL ([17]; conc. 12.5 μg/ml) was 0%, the inhibition at 50 µg/mL ([17]; conc. 50 μg/ml) was 0% and the inhibition at 100 µg/mL ([17]; conc. 100 μg/ml) was 0%.
